# Target: CazM (Chaetomium globosum, UniProt A0A0K0MCJ4)
# Test: HPLC / LC-MS product analysis
# Type: biochemical
# Settings: 2 mM 11-SNAC, malonyl-CoA, SAM; pH 7.4, room temperature, 8 h; reductive release
# Sequence of CazM (A0A0K0MCJ4 whole entry): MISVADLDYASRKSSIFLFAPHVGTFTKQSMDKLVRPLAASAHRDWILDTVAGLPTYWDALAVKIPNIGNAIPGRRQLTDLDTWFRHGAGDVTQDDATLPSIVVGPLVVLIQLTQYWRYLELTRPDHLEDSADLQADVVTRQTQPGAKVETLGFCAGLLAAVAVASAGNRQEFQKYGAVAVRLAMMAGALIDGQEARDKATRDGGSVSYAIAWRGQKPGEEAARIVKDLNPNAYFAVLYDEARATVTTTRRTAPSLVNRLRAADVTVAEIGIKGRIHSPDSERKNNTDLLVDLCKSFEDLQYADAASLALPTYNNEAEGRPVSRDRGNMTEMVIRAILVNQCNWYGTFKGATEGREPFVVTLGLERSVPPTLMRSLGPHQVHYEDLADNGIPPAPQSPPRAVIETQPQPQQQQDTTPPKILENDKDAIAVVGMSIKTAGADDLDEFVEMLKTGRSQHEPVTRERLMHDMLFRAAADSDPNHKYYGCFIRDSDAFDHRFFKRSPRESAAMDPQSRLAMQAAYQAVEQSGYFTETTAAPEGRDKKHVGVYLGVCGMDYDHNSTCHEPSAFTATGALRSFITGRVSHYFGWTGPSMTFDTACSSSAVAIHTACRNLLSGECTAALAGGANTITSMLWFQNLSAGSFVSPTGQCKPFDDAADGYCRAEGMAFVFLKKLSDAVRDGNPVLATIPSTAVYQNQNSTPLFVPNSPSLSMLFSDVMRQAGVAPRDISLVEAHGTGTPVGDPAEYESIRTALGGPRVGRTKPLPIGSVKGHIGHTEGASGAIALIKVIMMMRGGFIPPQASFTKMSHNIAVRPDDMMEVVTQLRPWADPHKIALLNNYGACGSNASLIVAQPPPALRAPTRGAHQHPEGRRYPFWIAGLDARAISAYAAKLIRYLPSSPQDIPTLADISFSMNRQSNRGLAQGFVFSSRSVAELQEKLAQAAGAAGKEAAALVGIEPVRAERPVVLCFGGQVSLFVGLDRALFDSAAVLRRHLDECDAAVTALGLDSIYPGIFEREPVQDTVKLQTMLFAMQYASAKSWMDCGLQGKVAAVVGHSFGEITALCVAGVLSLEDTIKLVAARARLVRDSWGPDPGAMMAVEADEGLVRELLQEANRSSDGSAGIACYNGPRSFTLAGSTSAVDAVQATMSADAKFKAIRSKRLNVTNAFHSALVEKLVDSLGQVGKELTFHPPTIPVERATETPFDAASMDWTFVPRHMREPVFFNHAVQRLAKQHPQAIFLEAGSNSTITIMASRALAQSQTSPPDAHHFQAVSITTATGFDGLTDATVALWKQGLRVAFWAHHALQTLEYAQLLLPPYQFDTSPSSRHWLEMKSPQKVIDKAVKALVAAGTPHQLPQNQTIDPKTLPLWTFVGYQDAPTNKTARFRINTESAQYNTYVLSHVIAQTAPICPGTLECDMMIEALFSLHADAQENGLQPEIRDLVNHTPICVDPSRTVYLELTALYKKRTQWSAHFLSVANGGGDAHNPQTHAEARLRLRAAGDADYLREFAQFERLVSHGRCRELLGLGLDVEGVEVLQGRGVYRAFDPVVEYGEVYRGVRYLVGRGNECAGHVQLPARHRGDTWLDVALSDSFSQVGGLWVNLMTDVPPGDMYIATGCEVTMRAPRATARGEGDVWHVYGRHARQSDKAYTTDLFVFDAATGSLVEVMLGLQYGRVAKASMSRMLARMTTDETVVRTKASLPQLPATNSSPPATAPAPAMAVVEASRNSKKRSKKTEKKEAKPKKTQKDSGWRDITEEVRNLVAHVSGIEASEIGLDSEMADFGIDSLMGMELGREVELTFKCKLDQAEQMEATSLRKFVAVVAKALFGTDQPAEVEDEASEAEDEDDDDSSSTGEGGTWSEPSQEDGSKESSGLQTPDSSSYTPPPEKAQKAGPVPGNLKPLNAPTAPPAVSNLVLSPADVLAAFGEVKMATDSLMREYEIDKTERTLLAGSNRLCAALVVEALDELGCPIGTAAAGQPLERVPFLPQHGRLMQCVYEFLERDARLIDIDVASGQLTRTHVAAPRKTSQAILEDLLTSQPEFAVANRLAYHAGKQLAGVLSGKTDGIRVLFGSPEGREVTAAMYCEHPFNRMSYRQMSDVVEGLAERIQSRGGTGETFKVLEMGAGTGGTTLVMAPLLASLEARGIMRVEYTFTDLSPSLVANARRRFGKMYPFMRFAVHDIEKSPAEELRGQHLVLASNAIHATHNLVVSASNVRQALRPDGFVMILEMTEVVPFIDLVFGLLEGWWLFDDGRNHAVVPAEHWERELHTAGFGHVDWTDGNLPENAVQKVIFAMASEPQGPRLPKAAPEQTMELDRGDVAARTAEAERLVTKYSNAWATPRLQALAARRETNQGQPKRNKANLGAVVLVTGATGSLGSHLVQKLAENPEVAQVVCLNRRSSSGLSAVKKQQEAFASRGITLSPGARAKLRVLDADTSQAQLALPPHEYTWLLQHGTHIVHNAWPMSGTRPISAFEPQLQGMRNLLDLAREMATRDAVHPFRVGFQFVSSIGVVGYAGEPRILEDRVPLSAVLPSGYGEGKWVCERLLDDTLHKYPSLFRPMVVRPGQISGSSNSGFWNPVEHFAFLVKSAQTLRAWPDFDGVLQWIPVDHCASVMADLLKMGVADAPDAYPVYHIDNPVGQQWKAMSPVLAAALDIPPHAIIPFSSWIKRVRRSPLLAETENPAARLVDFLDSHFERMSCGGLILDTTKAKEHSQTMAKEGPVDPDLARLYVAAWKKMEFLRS
compound,measurement,value
NC(=O)C1=CN([C@@H]2O[C@H](COP(=O)(O)OP(=O)(O)OC[C@H]3O[C@@H](n4cnc5c(N)ncnc54)[C@H](OP(=O)(O)O)[C@@H]3O)[C@@H](O)[C@H]2O)C=CC1 [NADPH],HPLC / LC-MS product analysis,CazM requires NADPH for the reductive offloading of its polyketide product
